Data reported in article PMC8843100, “Development of newly synthesised quinazolinone-based CDK2 inhibitors with potent efficacy against melanoma” (Journal of Enzyme Inhibition and Medicinal Chemistry, 2022).

How the values were obtained:
Test in all cases: NCI-60 single dose screen, sulforhodamine B
Type in all cases: cell-based, human
HCC-2998 = settings: Colon cancer HCC-2998; single dose 10^−5 M
Procedure: (§1) In this research, all of the newly synthesised quinazolinones were subjected to in vitro anticancer screening by the National Cancer Institute (USA) against 60 different human cell lines including leukaemia, non-small cell lung cancer, colon cancer, CNS cancer, melanoma, ovarian cancer, renal cancer, prostate cancer, and breast cancer. The tested compounds were evaluated at a single dose (10^−5 M). […] Regarding the benzenesulfonamide counterparts, the introduction of an electron-withdrawing group on the benzenesulfonamide moiety increased the inhibitory activity on the glioblastoma cell line SNB-75 as depicted by the chloro derivative 5c (GI% = 63.09) which was higher than that of the unsubstituted derivative 5a (GI% = 40.06) and the methyl derivative 5b (GI% = 33.03).
(§2) 1. Cytotoxicity screening against a panel of 60 human tumor cell lines
(§3) All the compounds were selected for NCI-60 Human Tumor Cell Lines Screen by the Developmental Therapeutics Program (DTP) at the National Cancer Institute (NCI), Maryland, USA. The operation of this screen utilizes 60 different human tumor cell lines, representing leukemia, non-small-cell lung cancer, colon cancer, CNS cancer, melanoma, ovarian cancer, renal cancer, prostate cancer and breas t cancer.
(§4) The compounds were supplied as dry powder and a single concentration is tested in all 60 cell lines at a single dose of 10 µM solution in dimethyl sulfoxide (DMSO) using Sulforhodamine B assay. Briefly, cells are seeded in 96 well plates at an appropriate density and incubated for 1 day. After 1 day, some of the plates are processed to determine the density time zero. To the remaining plates, compounds are added at 10 µM concentration. Plates are incubated a further 2 days, then fixed and staine d with sulphorhodamine B. Growth inhibition is calculated relative to cells without drug treatment and the time zero control. The use of a time zero control allows the determination of cell kill as well as net growth inhibition. […]

786-0 = settings: Renal cancer 786-0; single dose 10^−5 M
Procedure: as §1, §2, §3, §4

SK-MEL-2 = settings: Melanoma SK-MEL-2; single dose 10^−5 M
Procedure: as §1, §2, §3, §4

UO-31 = settings: Renal cancer UO-31; single dose 10^−5 M
Procedure: as §1, §2, §3, §4

T-47D = settings: Breast cancer T-47D; single dose 10^−5 M
Procedure: as §1, §2, §3, §4

SK-MEL-5 = settings: Melanoma SK-MEL-5; single dose 10^−5 M
Procedure: as §1, §2, §3, §4

OVCAR-5 = settings: Ovarian cancer OVCAR-5; single dose 10^−5 M
Procedure: as §1, §2, §3, §4

SK-MEL-28 = settings: Melanoma SK-MEL-28; single dose 10^−5 M
Procedure: as §1, §2, §3, §4

TK-10 = settings: Renal cancer TK-10; single dose 10^−5 M
Procedure: as §1, §2, §3, §4

HT29 = settings: Colon cancer HT29; single dose 10^−5 M
Procedure: as §1, §2, §3, §4

EKVX = settings: Non-small cell lung cancer EKVX; single dose 10^−5 M
Procedure: as §1, §2, §3, §4

NCI-H226 = settings: Non-small cell lung cancer NCI-H226; single dose 10^−5 M
Procedure: as §1, §2, §3, §4

A549/ATCC = settings: Non-small cell lung cancer A549/ATCC; single dose 10^−5 M
Procedure: as §1, §2, §3, §4

OVCAR-4 = settings: Ovarian cancer OVCAR-4; single dose 10^−5 M
Procedure: as §1, §2, §3, §4

M14 = settings: Melanoma M14; single dose 10^−5 M
Procedure: as §1, §2, §3, §4

PC-3 = settings: Prostate cancer PC-3; single dose 10^−5 M
Procedure: as §1, §2, §3, §4

MDA-MB-435 = settings: Melanoma MDA-MB-435; single dose 10^−5 M
Procedure: as §1, §2, §3, §4

SF-539 = settings: CNS cancer SF-539; single dose 10^−5 M
Procedure: as §1, §2, §3, §4

SF-268 = settings: CNS cancer SF-268; single dose 10^−5 M
Procedure: as §1, §2, §3, §4

DU-145 = settings: Prostate cancer DU-145; single dose 10^−5 M
Procedure: as §1, §2, §3, §4

HOP-62 = settings: Non-small cell lung cancer HOP-62; single dose 10^−5 M
Procedure: as §1, §2, §3, §4

SNB-19 = settings: CNS cancer SNB-19; single dose 10^−5 M
Procedure: as §1, §2, §3, §4

KM12 = settings: Colon cancer KM12; single dose 10^−5 M
Procedure: as §1, §2, §3, §4

HOP-92 = settings: Non-small cell lung cancer HOP-92; single dose 10^−5 M
Procedure: as §1, §2, §3, §4

NCI-H23 = settings: Non-small cell lung cancer NCI-H23; single dose 10^−5 M
Procedure: as §1, §2, §3, §4

A498 = settings: Renal cancer A498; single dose 10^−5 M
Procedure: as §1, §2, §3, §4

NCI-H322M = settings: Non-small cell lung cancer NCI-H322M; single dose 10^−5 M
Procedure: as §1, §2, §3, §4

HCT-116 = settings: Colon cancer HCT-116; single dose 10^−5 M
Procedure: as §1, §2, §3, §4

SW-620 = settings: Colon cancer SW-620; single dose 10^−5 M
Procedure: as §1, §2, §3, §4

LOX IMVI = settings: Melanoma LOX IMVI; single dose 10^−5 M
Procedure: as §1, §2, §3, §4

CCRF-CEM = settings: Leukaemia CCRF-CEM; single dose 10^−5 M
Procedure: as §1, §2, §3, §4

K-562 = settings: Leukaemia K-562; single dose 10^−5 M
Procedure: as §1, §2, §3, §4

Structure (SMILES) | GI% at 10^−5 M (HCC-2998) | GI% at 10^−5 M (786-0) | GI% at 10^−5 M (SK-MEL-2) | GI% at 10^−5 M (UO-31) | GI% at 10^−5 M (T-47D) | GI% at 10^−5 M (SK-MEL-5) | GI% at 10^−5 M (OVCAR-5) | GI% at 10^−5 M (SK-MEL-28) | GI% at 10^−5 M (TK-10) | GI% at 10^−5 M (HT29) | GI% at 10^−5 M (EKVX) | GI% at 10^−5 M (NCI-H226) | GI% at 10^−5 M (A549/ATCC) | GI% at 10^−5 M (OVCAR-4) | GI% at 10^−5 M (M14) | GI% at 10^−5 M (PC-3) | GI% at 10^−5 M (MDA-MB-435) | GI% at 10^−5 M (SF-539) | GI% at 10^−5 M (SF-268) | GI% at 10^−5 M (DU-145) | further results
O=c1c2ccccc2nc(COc2ccccc2)n1NS(=O)(=O)c1ccccc1 [Compound 5a, N-(4-oxo-2-(phenoxymethyl)quinazolin-3(4H)-yl)benzenesulfonamide] | – (– means GI < 10%) | – (– means GI < 10%) | – (– means GI < 10%) | 18.13% | – (– means GI < 10%) | – (– means GI < 10%) | – (– means GI < 10%) | – (– means GI < 10%) | – (– means GI < 10%) | – (– means GI < 10%) | 15.21% | – (– means GI < 10%) | – (– means GI < 10%) | – (– means GI < 10%) | – (– means GI < 10%) | – (– means GI < 10%) | – (– means GI < 10%) | – (– means GI < 10%) | – (– means GI < 10%) | – (– means GI < 10%) | GI% at 10^−5 M (HOP-62): 16.59%; GI% at 10^−5 M (SNB-19): – (– means GI < 10%); GI% at 10^−5 M (KM12): – (– means GI < 10%); GI% at 10^−5 M (HOP-92): 10.25%; GI% at 10^−5 M (NCI-H23): 11.73%; GI% at 10^−5 M (A498): – (– means GI < 10%); GI% at 10^−5 M (NCI-H322M): – (– means GI < 10%); GI% at 10^−5 M (HCT-116): – (– means GI < 10%); GI% at 10^−5 M (SW-620): – (– means GI < 10%); GI% at 10^−5 M (LOX IMVI): – (– means GI < 10%); GI% at 10^−5 M (CCRF-CEM): – (– means GI < 10%); GI% at 10^−5 M (K-562): – (– means GI < 10%)
Cc1ccc(S(=O)(=O)Nn2c(COc3ccccc3)nc3ccccc3c2=O)cc1 [Compound 5b, 4-methyl-N-(4-oxo-2-(phenoxymethyl)quinazolin-3(4H)-yl)benzenesulfonamide] | – (– means GI < 10%) | – (– means GI < 10%) | – (– means GI < 10%) | 10.74% | – (– means GI < 10%) | – (– means GI < 10%) | – (– means GI < 10%) | – (– means GI < 10%) | 23.64% | – (– means GI < 10%) | 13.18% | – (– means GI < 10%) | – (– means GI < 10%) | – (– means GI < 10%) | – (– means GI < 10%) | – (– means GI < 10%) | – (– means GI < 10%) | – (– means GI < 10%) | – (– means GI < 10%) | 15.73% | GI% at 10^−5 M (HOP-62): 11.16%; GI% at 10^−5 M (SNB-19): – (– means GI < 10%); GI% at 10^−5 M (KM12): – (– means GI < 10%); GI% at 10^−5 M (HOP-92): 10.82%; GI% at 10^−5 M (NCI-H23): 11.47%; GI% at 10^−5 M (A498): – (– means GI < 10%); GI% at 10^−5 M (NCI-H322M): – (– means GI < 10%); GI% at 10^−5 M (HCT-116): – (– means GI < 10%); GI% at 10^−5 M (SW-620): – (– means GI < 10%); GI% at 10^−5 M (LOX IMVI): – (– means GI < 10%); GI% at 10^−5 M (CCRF-CEM): – (– means GI < 10%); GI% at 10^−5 M (K-562): – (– means GI < 10%)
COc1cc(C=Nn2c(COc3ccccc3)nc3ccccc3c2=O)ccc1O [Compound 6a, 3-((4-hydroxy-3-methoxybenzylidene)amino)-2-(phenoxymethyl)quinazolin-4(3H)-one] | – (– means GI < 10%) | – (– means GI < 10%) | – (– means GI < 10%) | 15.75% | – (– means GI < 10%) | – (– means GI < 10%) | – (– means GI < 10%) | – (– means GI < 10%) | – (– means GI < 10%) | – (– means GI < 10%) | – (– means GI < 10%) | – (– means GI < 10%) | – (– means GI < 10%) | – (– means GI < 10%) | – (– means GI < 10%) | – (– means GI < 10%) | – (– means GI < 10%) | – (– means GI < 10%) | – (– means GI < 10%) | – (– means GI < 10%) | GI% at 10^−5 M (HOP-62): – (– means GI < 10%); GI% at 10^−5 M (SNB-19): – (– means GI < 10%); GI% at 10^−5 M (KM12): – (– means GI < 10%); GI% at 10^−5 M (HOP-92): – (– means GI < 10%); GI% at 10^−5 M (NCI-H23): – (– means GI < 10%); GI% at 10^−5 M (A498): – (– means GI < 10%); GI% at 10^−5 M (NCI-H322M): – (– means GI < 10%); GI% at 10^−5 M (HCT-116): – (– means GI < 10%); GI% at 10^−5 M (SW-620): – (– means GI < 10%); GI% at 10^−5 M (LOX IMVI): – (– means GI < 10%); GI% at 10^−5 M (CCRF-CEM): – (– means GI < 10%); GI% at 10^−5 M (K-562): – (– means GI < 10%)
